According to patent EP3098228A1, “POLYOXOMOLYBDATE-BISPHOSPHONATE COMPLEX CONTAINING A HETEROMETALLIC ION DIFFERENT FROM MOLYBDENUM” (CENTRE NATIONAL DE LA RECHERCHE SCIENTIFIQUE, priority 2015, dated 2016):
Where two headings read alike, the source gives them in different places. Values belong to the compound of their own block, whether it stands above or below them.

What was measured:
MCF-7 [1] = conditions: literature values, cited from earlier work
[2] = tested on: Human tumor cell lines MCF-7 (breast adenocarcinoma); test: Cell-growth inhibition assay (MTT cell proliferation assay, 4 days); format: cell-based; conditions: MCF-7, 4 days incubation
Protocol: Cells were plated at a density of 5000 cells/well.
Results are gathered in table 3 hereinafter. The results are shown on a molar basis (IC50 values, in µM) as well as on a per-bisphosphonate basis, which is more logical when comparisons are to be made with the pure bisphosphonates.

MCF-7 [3] = test: Cell growth "rescue" experiments with geranylgeraniol (GGOH); format: cell-based, Human
Protocol: Addition of geranylgeraniol (GGOH) was tested on Mo4Zol2Mn.
Protocol Cell growth "rescue" experiments with geranylgeraniol were carried out as described previously, and namely in Y. Zhang, et al J. Am. Chem. Soc. 2009, 131, 51.
An increase in the IC50 indicates a direct role for the bisphosphonate moiety in cell growth inhibition.

[4] = Solubility in water (remark in the solid state NMR section); format: physicochemical
Source text: The broadening could be due either to the low crystallinity in Mo12(AlePy)4Pt4 and/or, a dynamic disorder, since we also observe a much less efficient CP transfer in CPMAS experiments when compared with Mo12(AlePy)4.

[5] = measurement conditions not strictly identical to Table 3, read-out: IC50
[6] = per bisphosphonate, read-out: IC50 per BP

Compound: NCCCC(O)(P(=O)(O)O)P(=O)(O)O [Ale, alendronate]
IC50 (MCF-7 [1]; [5]): 130 ± 2.2 µM
IC50 (MCF-7 [1]; [6]): 130 µM

Compound: O=P(O)(O)C(O)(Cn1ccnc1)P(=O)(O)O [Zol, zoledronate]
IC50 ([2]; Homo sapiens, MCF7, 96 h, molar basis, read-out: IC50): 15 ± 2.6 µM
IC50 ([2]; Homo sapiens, MCF7, 96 h, per-bisphosphonate basis, read-out: IC50 per BP): 15 ± 2.6 µM
IC50 (MCF-7 [3]; Homo sapiens, MCF7, with addition of geranylgeraniol (GGOH), read-out: IC50 +GGOH): 48 µM
IC50 (MCF-7 [3]; Homo sapiens, MCF7, without GGOH, read-out: IC50): 15 µM
IC50 (MCF-7 [1]; [5]): 7.7 ± 2.6 µM
IC50 (MCF-7 [1]; [6]): 7.7 µM

Compound: Na3{Na(Mo3O8)4[O3PCC3H6NH2CH2(C5H5N)(O)PO3]4} .25H20 [Mo12(AlePy)4]
solubility in water [4]: essentially insoluble in water

The remaining lines, values ahead:

IC50 ([2]; molar basis, listed as Mn(II)Cl2, read-out: IC50): ~740 µM
IC50 ([2]; molar basis, read-out: IC50): 740 ± 140 µM
Compound: [Cl][Mn][Cl] [MnCl2]

IC50 ([2]; molar basis, read-out: IC50): 1.3 ± 0.24 µM
IC50 ([2]; per-bisphosphonate basis, read-out: IC50 per BP): 2.6 ± 0.48 µM
IC50 (MCF-7 [3]; with addition of geranylgeraniol (GGOH), read-out: IC50 +GGOH): 7.6 µM
IC50 (MCF-7 [3]; without GGOH, read-out: IC50): 1.3 µM
Compound: Rb(NH4)4[(Mo2O6)2(O3PC(CH2C3H4N2)(O)PO3)2Mn].14H2O [Mo4Zol2Mn]
